In brackets after ≈: the same amount, converted by molar mass.
Tests used:
[1] = system: Proteus vulgaris IAM 1025; assay: In vitro antibacterial activity, two-fold agar-plate dilution method (MIC), Proteus vulgaris; type: cell-based; conditions: IAM1025, heart infusion agar, 37° C. for 20 hours, approximately 10^6 cells per ml, read-out: MIC (minimal inhibitory concentration)
Method: (§1) In vitro antibacterial activity was determined by the two-fold agar-plate dilution method as described below. One loopful of an overnight culture of each test strain in Trypticase-soy broth (approximately 10^6 […] cells per ml.) was streaked on heart infusion agar (HI-agar) containing graded concentrations of antibiotics, and the minimal inhibitory concentration (MIC) was expressed in […] of μg/ml after incubation at 37° C. for 20 hours.

[2] = system: Pseudomonas aeruginosa NCTC-10490; assay: In vitro antibacterial activity, two-fold agar-plate dilution method (MIC), Pseudomonas aeruginosa; type: cell-based; conditions: NCTC10490, heart infusion agar, 37° C. for 20 hours, approximately 10^6 cells per ml, read-out: MIC (minimal inhibitory concentration)
Method: as §1

| SMILES | MIC [1] [µg/mL] | MIC [2] [µg/mL] |
| --- | --- | --- |
| CCO/N=C(\C(=O)NC1C(=O)N2C(C(=O)O)=CC(C)SC12)c1cccc(N)n1 (stereo not drawn) [compound 14, 7-[2-(6-aminopyridin-2-yl)-2-ethoxyiminoacetamido]-2-methyl-3-cephem-4-carboxylic acid (syn isomer)] | 0.05 (≈ 0.123 µM) | < 1.56 |
| Nc1cccc(/C(=N/OCC(F)(F)F)C(=O)NC2C(=O)N3C(C(=O)O)=C(CSc4nnnn4CC(=O)O)CSC23)n1 (stereo not drawn) [compound 5, 7-[2-(6-Aminopyridin-2-yl)-2-(2,2,2-trifluoroethoxyimino)acetamido]-3-[(1-carboxymethyl-1H-tetrazol-5-yl)thiomethyl]-3-cephem-4-carboxylic acid (syn isomer)] | 0.025 (≈ 0.0405 µM) | < 1.56 |
| CO/N=C(\C(=O)NC1C(=O)N2C(C(=O)O)=C(CSc3nnnn3C)CSC12)c1cccc(N)n1 (stereo not drawn) [compound 6, 7-[2-(6-aminopyridin-2-yl)-2-methoxyiminoacetamido]-3-(1-methyl-1H-tetrazol-5-yl)thiomethyl-3-cephem-4-carboxylic acid (syn isomer)] | ≤ 0.025 | ≤ 1.56 |
| CON=C(C(=O)NC1C(=O)N2C(C(=O)O)=CCS[C@H]12)c1cccc(N)n1 (stereo partly shown) [compound 7, 7-[2-(6-aminopyridin-2-yl)-2-methoxyiminoacetamido]-3-cephem-4-carboxylic acid] | ≤ 0.025 | 6.25 (≈ 16.6 µM) |
| CO/N=C(\C(=O)NC1C(=O)N2C(C(=O)O)=C(COC(C)=O)CSC12)c1cccc(N)n1 (stereo not drawn) [compound 9, 7-[2-(6-aminopyridin-2-yl)-2-methoxyiminoacetamido]cephalosporanic acid (syn isomer)] | ≤ 0.025 | ≤ 1.56 |
| CO/N=C(\C(=O)NC1C(=O)N2C(C(=O)O)=C(COC(N)=O)CSC12)c1cccc(N)n1 (stereo not drawn) [compound 8, 7-[2-(6-aminopyridin-2-yl)-2-methoxyiminoacetamido]-3-carbamoyloxymethyl-3-cephem-4-carboxylic acid (syn isomer)] | 0.05 (≈ 0.111 µM) | 3.13 (≈ 6.95 µM) |

Results, then the compound that gave them:

| MIC [1] [µg/mL] | MIC [2] [µg/mL] | SMILES |
| --- | --- | --- |
| 0.05 (≈ 0.0935 µM) | < 1.56 | C=CCO/N=C(\C(=O)NC1C(=O)N2C(C(=O)O)=C(CSc3nncs3)CSC12)c1nccc(N)n1 (stereo not drawn) [compound 3, 7-[2-Allyloxyimino-2-(4-aminopyrimidin-2-yl)acetamido]-3-(1,3,4-thiadiazol-2-ylthiomethyl)-3-cephem-4-carboxylic acid (syn isomer)] |
| ≤ 0.025 | < 1.56 | CO/N=C(\C(=O)NC1C(=O)N2C(C(=O)O)=C(CSc3nnnn3C)CSC12)c1nccc(N)n1 (stereo not drawn) [compound 11, 7-[2-(4-aminopyrimidin-2-yl)-2-methoxyiminoacetamido]-3-(1-methyl-1H-tetrazol-5-ylthiomethyl)-3-cephem-4-carboxylic acid (syn isomer)] |
| < 0.025 | < 1.56 | CCCO/N=C(\C(=O)NC1C(=O)N2C(C(=O)O)=C(CSc3nncs3)CSC12)c1nccc(N)n1 (stereo not drawn) [compound 4, 7-[2-(4-Aminopyrimidin-2-yl)-2-propoxyiminoacetamido]-3-(1,3,4-thiadiazol-2-ylthiomethyl)-3-cephem-4-carboxylic acid (syn isomer)] |
| 0.05 (≈ 0.0944 µM) | ≤ 1.56 | C#CCO/N=C(\C(=O)NC1C(=O)N2C(C(=O)O)=C(CSc3nnnn3C)CSC12)c1cccc(N)n1 (stereo not drawn) [compound 13, 7-[2-(6-aminopyridin-2-yl)-2-propargyloxyiminoacetamido]-3-(1-methyl-1H-tetrazol-5-ylthiomethyl)-3-cephem-4-carboxylic acid (syn isomer)] |
| < 0.025 | 6.25 (≈ 11.7 µM) | C=CCn1nnnc1SCC1=C(C(=O)O)N2C(=O)C(NC(=O)/C(=N\OC)c3nccc(N)n3)C2SC1 (stereo not drawn) [compound 2, 7-[2-(4-Aminopyrimidin-2-yl)-2-methoxyiminoacetamido]-3-[(1-allyl-1H-tetrazol-5-yl)thiomethyl]-3-cephem-4-carboxylic acid (syn isomer)] |
| 0.05 (≈ 0.0941 µM) | ≤ 1.56 | C=CCO/N=C(\C(=O)NC1C(=O)N2C(C(=O)O)=C(CSc3nnnn3C)CSC12)c1cccc(N)n1 (stereo not drawn) [compound 12, 7-[2-allyloxyimino-2-(6-aminopyridin-2-yl)acetamido]-3-(1-methyl-1H-tetrazol-5-ylthiomethyl)-3-cephem-4-carboxylic acid (syn isomer)] |
| < 0.025 | < 1.56 | CCO/N=C(\C(=O)NC1C(=O)N2C(C(=O)O)=C(CSc3nncs3)CSC12)c1nccc(N)n1 (stereo not drawn) [compound 1, 7-[2-(4-Aminopyrimidin-2-yl)-2-ethoxyiminoacetamido]-3-(1,3,4-thiadiazol-2-ylthiomethyl)-3-cephem-4-carboxylic acid (syn isomer)] |
| 0.2 (≈ 0.395 µM) | 6.25 (≈ 12.3 µM) | CON=C(C(=O)NC1C(=O)N2C(C(=O)O)=C(CSc3nnnn3C)CS[C@H]12)c1ccnc(N)n1 (stereo partly shown) [compound 10, 7-[2-(2-aminopyrimidin-4-yl)-2-methoxyiminoacetamido]-3-(1-methyl-1H-tetrazol-5-yl)thiomethyl-3-cephem-4-carboxylic acid] |

Source: US4267176A, “Amino or acylamino-substituted pyrimidinyl cephalosporanic acid derivatives and pharmaceutical compositions thereof” (Fujisawa Pharmaceutical Co., Ltd., priority 1977, dated 1981)
